From patent US20220072128A1, “ULTRASOUND-INDUCED CONVECTION FOR DRUG DELIVERY AND TO DRIVE GLYMPHATIC OR LYMPHATIC FLOWS” (The Board of Trustees of the Leland Stanford Junior …, priority 2020, published 2022) come the findings set out here.

Data set [1] can be described thus: Near-infrared fluorescence imaging of brain slices after intrathecal co-delivery of optical tracers, transcranial ultrasound vs sham. Conditions: about 2 hours after intrathecal delivery, 10 min ultrasound. The format is in vivo, rat. On the procedure:
Animals. The Institutional Animal Care and Use Committees of Stanford University approved all animal experiments. Tests were performed in 42 male Long-Evans rats with bodyweight 300-350 gm (Charles River Laboratories, Wilmington, Mass., USA). Animals were randomly assigned to one of two groups: (1) no treatment (Sham), and (2) treatment (Ultrasound). Ultrasound (0.25 MI in situ, 7.7% duty cycle for 10 min) or sham was applied transcranially throughout the brain (FIG. 1A). Before each procedure, the fur on the neck was shaved and a cisterna magna injection of a gadolinium (Gd) chelate (Multihance, Bracco Diagnostics, NJ, USA) was performed while the animal was anesthetized under isoflurane. The body temperature, cardiac and respiratory rates, and O2 saturation were monitored throughout the experiment and the isoflurane level was titrated to keep these parameters constant; environmental heating was used to help maintain body temperature. Localizer, FLASH-T1-3D, T1-mapping, and T2*-weighted MR images were taken to visualize glymphatic transport across the brain, to quantify Gd-chelate kinetic parameters, and to evaluate for parenchymal damage. […]
Fluorescence Imaging. […] Tissue sections were thaw-mounted on microscope glass slides (Fisher, Pittsburgh, Pa.), fixed the tissue-slides using 4% paraformaldehyde, and applied DAPI for fluorescence imaging. […]

The nature of data set [2]: Quantitative T1-mapping MRI of glymphatic transport of intrathecally (cisterna magna) injected Gd-chelate into the brain, transcranial ultrasound vs sham. The format is in vivo, rat. Further details: mean gadolinium-enhanced volume: unit not given here. The protocol:
Animals. The Institutional Animal Care and Use Committees of Stanford University approved all animal experiments. Tests were performed in 42 male Long-Evans rats with bodyweight 300-350 gm (Charles River Laboratories, Wilmington, Mass., USA). Animals were randomly assigned to one of two groups: (1) no treatment (Sham), and (2) treatment (Ultrasound). Ultrasound (0.25 MI in situ, 7.7% duty cycle for 10 min) or sham was applied transcranially throughout the brain (FIG. 1A). Before each procedure, the fur on the neck was shaved and a cisterna magna injection of a gadolinium (Gd) chelate (Multihance, Bracco Diagnostics, NJ, USA) was performed while the animal was anesthetized under isoflurane. The body temperature, cardiac and respiratory rates, and O2 saturation were monitored throughout the experiment and the isoflurane level was titrated to keep these parameters constant; environmental heating was used to help maintain body temperature. Localizer, FLASH-T1-3D, T1-mapping, and T2*-weighted MR images were taken to visualize glymphatic transport across the brain, to quantify Gd-chelate kinetic parameters, and to evaluate for parenchymal damage. In separate cohorts, either of two different sized optical tracers, a small molecule (IR800CW Carboxylate, LICOR, Lincoln, Nebr., USA; ˜1 kDa) or a large molecule (Panitumumab-IRDye800: ˜150 kDa, 5 nM, produced under GMP at the Leidos Biomedical Research Center, Frederick, Md., USA) (39) were co-delivered with the Gd-chelate to model the delivery of similar-sized therapeutic agents.
Intrathecal Cisterna Magna Injection For anesthesia, the animals were induced with 5% isoflurane in oxygen using an induction chamber and then switched to a maintenance dose of 2%. The animal was positioned in a stereotaxic frame (Stoelting, Wood Dale, Ill., USA), immobilized with ear bars, and then the head flexed to 45 degrees. A 27-gauge catheter (Butterfly Needle, SAI Infusion Technology, Lake Villa, Ill., USA) was inserted in the cisterna magna to inject up to 80 μl of tracers (Gd-chelate: MultiHance, gadobenate dimeglumine; Bracco Diagnostics Inc, NJ, USA; 0.21 ml/kg) slowly over 30 seconds. To model the delivery of similar-sized therapeutic agents, two different sized molecules, free dye (IRDye800CW Carboxylate, LICOR, Lincoln, Nebr., USA; ˜1 kDa; 36 nmol/kg) and IR dye-conjugated antibody (Panitumumab-IRDye800: ˜150 kDa; 0.133 mg/kg) were co-delivered with the Gd-chelate. The respiratory rate (45-50 breaths per minute), and normal body temperature (36.5-37.5° C.) were maintained throughout the experiment through titration of isoflurane dose and with environmental heating.
Magnetic Resonance Imaging Protocol. Magnetic Resonance Imaging (MRI) (an actively-shielded Bruker 7T horizontal bore scanner (Bruker Corp, Billerica Mass.), with International Electric Co. (IECO) gradient drivers, a 120 mm ID shielded gradient insert (600 mT/m, 1000 T/m/s), AVANCE III electronics; 8-channel multi-coil RF and multinuclear capabilities and volume RF coils; and the supporting Paravision 6.0.1 platform) was used to visualize glymphatic transport of Gd-chelate into the brain and to make quantitative T1-maps. The facility provides isoflurane anesthesia in medical-grade oxygen, and physiological monitoring of the subject including ECG, pulse oximetry, respiration, and temperature feedback for core body temperature maintenance by warm airflow over the animal. Following cisterna magna contrast agent injection, an MRI compatible animal FUS system (Image Guided Therapy—IGT, Pessac, France) was used in all experiments. Animals were placed in a prone position in a plastic stereotactic frame that has a single channel radiofrequency transmit-receive head coil (IGT) which is coupled to the FUS system. Animals were immobilized in the frame with ear bars and a bite bar. Noninvasive, MRI-compatible monitors for the respiratory rate and body temperature were used during the imaging session. […]

Entries after “also recorded” stand apart in the source; their conditions may differ.

Turning to “Panitumumab-IRDye800: therapeutic antibody panitumumab (~150 kDa, EGFR-targeted) conjugated with the IR dye; large optical tracer”, the results for the “brain penetration (near-infrared dye-enhanced area), ultrasound compared to sham” value in data set [1] and in data set [1] (listed as panitumumab) were “significantly greater degree with ultrasound” and “penetrated to a greater degree into the brain”, respectively.
For `CNC[C@H](O)[C@@H](O)[C@H](O)[C@H](O)CO.CNC[C@H](O)[C@@H](O)[C@H](O)[C@H](O)CO.O=C([O-])CN(CCN(CC(=O)[O-])CC(=O)O)CCN(CC(=O)O)C(COCc1ccccc1)C(=O)[O-].[Gd+3]` (stereo not drawn) [Gd-chelate, gadobenate dimeglumine], the “time at which perivascular influx of CSF into the brain is initially observed” value in data set [2] (3D T1w MRI, after intrathecal administration) was found to be 12 min. In addition, the “brain volume containing a resolvable amount of contrast agent, ultrasound versus sham” value in data set [2] (T1-mapping MRI over time) is listed as “significantly larger volume of brain”. Besides, in data set [2] (T1w MRI after cisternal injection), the “time by which cleared from the CSF-ISF spaces” value was no more than 3 h. Moreover, the “Gd-chelate deposition in the brain” value in data set [2] (T1w MRI, 24-72 h after ultrasound intervention) is “no any evidence of Gd deposition; also recorded: no prolonged Gd-chelate deposition”. In addition, the mean gadolinium-enhanced volume was determined as 0.18±0.07 in data set [2] (Ultrasound cohort (0.25 MI, 10 min, applied at 23 min), 12 min baseline); 0.43±0.16 in data set [2] (Ultrasound cohort, 35 min); 0.44±0.17 in data set [2] (Ultrasound cohort, 70 min); 0.45±0.25 in data set [2] (Ultrasound cohort, 105 min); 0.18±0.24 in data set [2] (Ultrasound cohort, 180 min); 0.17±0.24 in data set [2] (Ultrasound cohort, 240 min). Also, the mean gadolinium-enhanced volume in data set [2] (sham cohort, 12 min after intrathecal injection, mean ± S.D.) came out at 0.17±0.084; in data set [2] (sham cohort, 35 min), 0.25±0.15; in data set [2] (sham cohort, 70 min), 0.22±0.1; in data set [2] (sham cohort, 105 min) it was 0.23±0.11; in data set [2] (sham cohort, 180 min) it was 0.11±0.12; in data set [2] (sham cohort, 240 min), 0.06±0.04. Also, in data set [2] (low-intensity transcranial scanning ultrasound vs sham), the “increase of peak parenchymal uptake with ultrasound” value is 72-101%. The “clearance timeline from the brain” value in data set [2] (with ultrasound) is 3 h. Further, in data set [2] (with ultrasound, 3 h post-injection), the “residual tracer in the brain” value is “increased residual tracer in the brain”. In data set [2] (with ultrasound, from injection), the “time of peak parenchymal uptake” value is 105 min. Also, the “time of peak brain concentration” value in data set [2] (without further intervention (no ultrasound), after intrathecal injection) is “approximately 35 min”. Besides, in data set [2] (without further intervention, from injection), the “time to clear from the brain interstitial compartment” value was no more than 3 h.
